From patent US12037345B2, “Heterobicyclic compounds for inhibiting the activity of SHP2” (TAIHO PHARMACEUTICAL CO., LTD., priority 2018, dated 2024) come the findings set out here.

In one test the target is SHP2 (Homo sapiens (Human), UniProt Q06124). Description: SHP2 Biochemical Assay (DiFMUP conversion, pIRS1-activated). In outline: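 Human SHP2 (10 pM) pre-incubated 30 min with compound and […] pIRS1 activating peptide, then 50 μM DiFMUP added; buffer 25 mM Bis-Tris propane pH 7.0, 150 mM NaCl, 5% DMSO. Fluorescence rate (ex 360/em 450 nm) over 30 min; IC50 by four-parameter fit, averaged across experiments.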
Sequence of SHP2 (Q06124 whole entry): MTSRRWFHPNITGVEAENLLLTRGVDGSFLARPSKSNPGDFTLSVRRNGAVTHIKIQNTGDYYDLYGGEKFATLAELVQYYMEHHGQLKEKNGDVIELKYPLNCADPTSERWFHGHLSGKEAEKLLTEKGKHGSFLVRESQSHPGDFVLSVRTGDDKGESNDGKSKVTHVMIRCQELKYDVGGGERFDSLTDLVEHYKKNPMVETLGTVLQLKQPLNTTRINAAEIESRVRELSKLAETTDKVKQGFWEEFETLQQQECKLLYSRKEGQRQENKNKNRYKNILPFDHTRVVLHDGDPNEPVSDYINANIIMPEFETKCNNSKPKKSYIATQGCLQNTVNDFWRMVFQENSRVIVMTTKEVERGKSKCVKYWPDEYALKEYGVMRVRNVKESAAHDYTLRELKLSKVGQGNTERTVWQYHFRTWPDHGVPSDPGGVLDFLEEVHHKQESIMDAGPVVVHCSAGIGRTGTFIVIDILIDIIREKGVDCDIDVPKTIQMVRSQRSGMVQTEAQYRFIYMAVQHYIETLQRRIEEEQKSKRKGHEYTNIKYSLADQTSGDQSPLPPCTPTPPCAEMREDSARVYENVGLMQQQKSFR

Test [1] concerns pERK (phospho-p44/42 MAPK Thr202/Tyr204) in HCC827 cells. The experiment in a line: Cellular pERK Inhibition Assay, Method B (PathScan phospho-p44/42 MAPK sandwich ELISA). The class given is cell-based. Conditions: for IC50: Homo sapiens. As to the method: Cellular pERK Inhibition Assay
HCC827 cells (ATCC, Manassas, USA) were seeded into 96-well plates at a density of 1×10^5 cells/well in RPMI medium supplemented with 10% FBS and incubated 24h. Compounds were diluted first in DMSO and then into serum-free medium, before being added to cells in triplicate to give a final concentration of 0.1% DMSO. Plates were incubated at 37° C. for the indicated time in a humidified atmosphere of 5% CO2 in air.
Following compound treatment, medium was removed and cells were lysed by adding 50 μL of lysis buffer (Cell Signalling Technology, Beverly, USA) to each well. Plates were then incubated at room temperature for 25 minutes with shaking. pERK levels were measured in lysates using the PathScan(Registered Trademark) phospho-p44/42 MAPK (Thr202/Tyr204) sandwich ELISA (Cell Signalling Technology, Beverly, USA) as per kit instructions. Briefly, 50 μL of cell lysate was added to 50 μL of ELISA sample diluent in a 96-well ELISA plate and incubated overnight at 4° C. Following washing, 100 μL of detection antibody was added per well and the plates incubated for 1 hour at 37° C. Plates were washed again and incubated at 37° C. for 30 minutes with 100 μl of HRP-linked secondary antibody per well. After final washing, 100 μL per well of TMB substrate was added and plates incubated at 37° C. to develop colour. Colour development was stopped by the addition of 100 μL per well of stop solution. Plates were read at 450 nm on a SpectraMax Gemini reader (Molecular Devices, Uckfield, UK).
The average signal from blank wells (no cells added) was subtracted from the signals from each sample well. Levels of pERK were then expressed as “percent of control”, using DMSO treated samples as control. Dose response curves were generated using GraphPad Prism Version 6 (GraphPad Software, La Jolla, USA) and fitted using the four parameter logistic curve fit.

[2] abbreviates: Table 19, head prints unit as "-M".
Setting [3] is: Table 19, head prints unit as "-M", read-out: pERK (IC50) Method B.
Setting [4] is: Table 20, read-out: pERK (IC50, μM) Method B.

The structures appear in SMILES notation. Where a name gives a salt, the structure may show the parent alone. Read-outs that look alike come from different tables or passages of the source.

On to `Cn1cc2c(Cl)c(-c3n[nH]c4nc(N5CCC6(CC5)COC[C@H]6N)n(C)c(=O)c34)ccc2n1` [Example 139, 6-[(4S)-4-amino-2-oxa-8-azaspiro[4.5]decan-8-yl]-3-(4-chloro-2-methyl-2H-indazol-5-yl)-5-methyl-1H,4H,5H-pyrazolo[3,4-d]pyrimidin-4-one], for which the IC50 is 20 nM at SHP2 (setting [2]) and 0.097 µM in test [1] (setting [3]).
Taken in the same sequence, the figures for `Cn1cc2c(Cl)c(-c3n[nH]c4nc(N5[C@@H]6CC[C@H]5C[C@H](N)C6)n(C)c(=O)c34)ccc2n1` [Example 140, exo-6-[3-amino-8-azabicyclo[3.2.1]octan-8-yl]-3-(4-chloro-2-methyl-2H-indazol-5-yl)-5-methyl-1H,4H,5H-pyrazolo[3,4-d]pyrimidin-4-one] were 17 nM and 0.48 µM.
Regarding `Cn1cc2c(Cl)c(-c3n[nH]c4nc(N5CCC6(CC5)CNC6)n(C)c(=O)c34)ccc2n1` [Example 141, 3-(4-chloro-2-methyl-2H-indazol-5-yl)-6-{2,7-diazaspiro[3.5]nonan-7-yl}-5-methyl-1H,4H,5H-pyrazolo[3,4-d]pyrimidin-4-one], at SHP2 (setting [2]), the IC50 was determined as 43 nM. Besides, the “pERK Method B, % at given concentration” value in test [1] (Table 19, at 10 μM) is given as 64% at 10 μM.
On to `Cn1cc2c(Cl)c(-c3n[nH]c4nc(N5CCC6(CCC[C@H]6N)CC5)n(C)c(=O)c34)ccc2n1` [Example 142, 6-[(1R)-1-amino-8-azaspiro[4.5]decan-8-yl]-3-(4-chloro-2-methyl-2H-indazol-5-yl)-5-methyl-1H,4H,5H-pyrazolo[3,4-d]pyrimidin-4-one], for which the IC50 was determined as 17 nM against SHP2 (setting [2]) and 0.11 µM in test [1] (setting [3]).
On to `C[C@@H]1OCC2(CCN(c3nc4[nH]nc(-c5ccc6nn(C)cc6c5Cl)c4c(=O)n3C)CC2)[C@@H]1N` [Example 143, 6-[(3S,4S)-4-amino-3-methyl-2-oxa-8-azaspiro[4.5]decan-8-yl]-3-(4-chloro-2-methyl-2H-indazol-5-yl)-5-methyl-1H,4H,5H-pyrazolo[3,4-d]pyrimidin-4-one], for which the results for the IC50 (on SHP2 (setting [2]); in test [1] (setting [3])) were 22 nM and 0.081 µM, respectively.
Taken in the same sequence, the figures for `Cn1cc2c(Cl)c(-c3n[nH]c4nc(N5CCC6(CC5)C[C@@H](F)C[C@H]6N)n(C)c(=O)c34)ccc2n1` [Example 144, 6-[(1R,3R)-1-amino-3-fluoro-8-azaspiro[4.5]decan-8-yl]-3-(4-chloro-2-methyl-2H-indazol-5-yl)-5-methyl-1H,4H,5H-pyrazolo[3,4-d]pyrimidin-4-one hydrochloride salt] were 19 nM and 0.21 µM.
For the molecule `Cn1nc2ccc(-c3n[nH]c4nc(N5CC6COCC(C5)N6)n(C)c(=O)c34)c(Cl)c2c1Cl` [Example 146, 3-(3,4-dichloro-2-methyl-2H-indazol-5-yl)-5-methyl-6-{3-oxa-7,9-diazabicyclo[3.3.1]nonan-7-yl}-1H,4H,5H-pyrazolo[3,4-d]pyrimidin-4-one hydrochloride salt], the IC50 on SHP2 (setting [2]) amounted to 57 nM; in test [1] (setting [3]) it was 3.8 µM.
As for `C[C@@H]1OCC2(CCN(c3nc4[nH]nc(-c5ccc6nn(C)c(Cl)c6c5Cl)c4c(=O)n3C)CC2)[C@@H]1N` [Example 147, 6-[(3S,4S)-4-amino-3-methyl-2-oxa-8-azaspiro[4.5]decan-8-yl]-3-(3,4-dichloro-2-methyl-2H-indazol-5-yl)-5-methyl-1H,4H,5H-pyrazolo[3,4-d]pyrimidin-4-one hydrochloride salt], the IC50 against SHP2 (setting [2]) was determined as 12 nM; in test [1] (setting [3]) it was 0.034 µM.
As to `CCn1cc2c(Cl)c(-c3n[nH]c4nc(N5CCC6(CC5)CO[C@@H](C)[C@H]6N)n(C)c(=O)c34)ccc2n1` [Example 148, 6-[(3S,4S)-4-amino-3-methyl-2-oxa-8-azaspiro[4.5]decan-8-yl]-3-(4-chloro-2-ethyl-2H-indazol-5-yl)-5-methyl-1H,4H,5H-pyrazolo[3,4-d]pyrimidin-4-one hydrochloride salt], the IC50 against SHP2 (setting [2]) was 24 nM; in test [1] (setting [3]), 0.025 µM.
With `CCn1cc2c(Cl)c(-c3c[nH]c4nc(N5CCC6(CC5)CO[C@@H](C)[C@H]6N)n(C)c(=O)c34)ccc2n1` [Example 150, 2-[(3S,4S)-4-amino-3-methyl-2-oxa-8-azaspiro[4.5]decan-8-yl]-5-(4-chloro-2-ethyl-2H-indazol-5-yl)-3-methyl-3H,4H,7H-pyrrolo[2,3-d]pyrimidin-4-one], the IC50 came out at 12 nM against SHP2 (setting [2]) and 0.013 µM in test [1] (setting [3]).
On to `CCn1cc2c(Cl)c(-c3c[nH]c4nc(N5CCCNCC5)n(C)c(=O)c34)ccc2n1` [Example 151, 5-(4-chloro-2-ethyl-2H-indazol-5-yl)-2-(1,4-diazepan-1-yl)-3-methyl-3H,4H,7H-pyrrolo[2,3-d]pyrimidin-4-one hydrochloride], for which the IC50 against SHP2 (setting [2]) is 23 nM; in test [1] (setting [3]), 0.52 µM.
For the molecule `CCn1cc2cc(-c3c[nH]c4nc(N5CCC6(CC5)COC[C@H]6N)n(C)c(=O)c34)ccc2n1` [Example 180, 2-[(4S)-4-amino-2-oxa-8-azaspiro[4.5]decan-8-yl]-5-(2-ethyl-2H-indazol-5-yl)-3-methyl-3H,4H,7H-pyrrolo[2,3-d]pyrimidin-4-one hydrochloride], the IC50 was 34 nM at SHP2 (Table 20) and 0.85 µM in test [1] (setting [4]).
As to `CCn1cc2c(F)c(-c3c[nH]c4nc(N5CCC6(CC5)COC[C@H]6N)n(C)c(=O)c34)ccc2n1` [Example 181, 2-[(4S)-4-amino-2-oxa-8-azaspiro[4.5]decan-8-yl]-5-(2-ethyl-4-fluoro-2H-indazol-5-yl)-3-methyl-3H,4H,7H-pyrrolo[2,3-d]pyrimidin-4-one hydrochloride], the IC50 against SHP2 (Table 20) was found to be 23 nM; in test [1] (setting [4]), 0.21 µM.
As for `CCn1cc2ccc(-c3c[nH]c4nc(N5CCC6(CC5)COC[C@H]6N)n(C)c(=O)c34)c(Cl)c2n1` [Example 182, 2-[(4S)-4-amino-2-oxa-8-azaspiro[4.5]decan-8-yl]-5-(7-chloro-2-ethyl-2H-indazol-6-yl)-3-methyl-3H,4H,7H-pyrrolo[2,3-d]pyrimidin-4-one hydrochloride], the concentration for half-maximal inhibition (IC50) at SHP2 (Table 20) is 36 nM; in test [1] (setting [4]) it was 2.2 µM.
Regarding `CCn1cc2ccc(-c3c[nH]c4nc(N5CCC6(CC5)COC[C@H]6N)n(C)c(=O)c34)c(F)c2n1` [Example 184, 2-[(4S)-4-amino-2-oxa-8-azaspiro[4.5]decan-8-yl]-5-(2-ethyl-7-fluoro-2H-indazol-6-yl)-3-methyl-3H,4H,7H-pyrrolo[2,3-d]pyrimidin-4-one hydrochloride], the IC50 against SHP2 (Table 20) was 70 nM; in test [1] (setting [4]) it was 1.1 µM.
Turning to `Cn1c(N2CC[C@H](N)[C@H](F)C2)nc2[nH]cc(-c3ccc4ncsc4c3Cl)c2c1=O` [Example 187, 2-[(3R,4S)-4-amino-3-fluoropiperidin-1-yl]-5-(7-chloro-1,3-benzothiazol-6-yl)-3-methyl-3H,4H,7H-pyrrolo[2,3-d]pyrimidin-4-one hydrochloride], the values for the IC50 (at SHP2 (Table 20); in test [1] (setting [4])) were 51 nM and 0.8 µM, respectively.
Take `Cn1cc2c(Cl)c(-c3c[nH]c4nc(N5[C@H]6CCNC[C@@H]5CC6)n(C)c(=O)c34)ccc2n1` [Example 188, 5-(4-chloro-2-methyl-2H-indazol-5-yl)-2-[(1S,6R)-3,9-diazabicyclo[4.2.1]nonan-9-yl]-3-methyl-3H,4H,7H-pyrrolo[2,3-d]pyrimidin-4-one hydrochloride]: the IC50 was 41 nM against SHP2 (Table 20) and 0.56 µM in test [1] (setting [4]).
On to `Cn1cc2c(Cl)c(-c3c[nH]c4nc(N5[C@@H]6CCNC[C@H]5CC6)n(C)c(=O)c34)ccc2n1` [Example 189, 5-(4-chloro-2-methyl-2H-indazol-5-yl)-2-[(1R,6S)-3,9-diazabicyclo[4.2.1]nonan-9-yl]-3-methyl-3H,4H,7H-pyrrolo[2,3-d]pyrimidin-4-one hydrochloride], for which the IC50 was determined as 19 nM against SHP2 (Table 20) and 0.23 µM in test [1] (setting [4]).
`C[C@@H]1OCC2(CCN(c3nc4[nH]cc(-c5cc(F)c6nn(C)cc6c5Cl)c4c(=O)n3C)CC2)[C@@H]1N` [Example 194, 2-[(3S,4S)-4-amino-3-methyl-2-oxa-8-azaspiro[4.5]decan-8-yl]-5-(4-chloro-7-fluoro-2-methyl-2H-indazol-5-yl)-3-methyl-3H,4H,7H-pyrrolo[2,3-d]pyrimidin-4-one hydrochloride]: the IC50 against SHP2 (Table 20) was 16 nM; in test [1] (setting [4]) it was 0.043 µM.
Taken in the same sequence, the figures for `Cn1cc2c(Cl)c(-c3c[nH]c4nc(N5[C@H]6CC[C@@H]5[C@](C)(N)C6)n(C)c(=O)c34)ccc2n1` [Example 195, 2-[(endo)-2-amino-2-methyl-7-azabicyclo[2.2.1]heptan-7-yl]-5-(4-chloro-2-methyl-2H-indazol-5-yl)-3-methyl-3H,4H,7H-pyrrolo[2,3-d]pyrimidin-4-one hydrochloride] were 16 nM and 0.045 µM.

The term IC50 denotes the midpoint of a concentration-inhibition curve.
